Assay results from patent US6914045B2, “Glycopeptide antibiotics” (Wyeth Holdings Corporation, priority 2001, dated 2005).
≈ marks a conversion by molar mass, not a printed value.

Legend:
Assay in all cases: in vitro antibacterial evaluation, MIC by broth dilution
Assay type in all cases: cell-based
[1] = test system: Enterococcus sp.; settings: broth dilution, 18 hours at 35° C.
Method in brief: (§1)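 Following National Committee for Clinical Laboratory Standards recommendations (M7-A2), susceptibility was measured by dilution in Muller-Hinton II […]. Bacteria were seeded at 5×10^5 CFU/mL against compound concentrations from 64 down to 0.06 μg/mL.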

[2] = test system: Escherichia coli; settings: 18 hours at 35° C.
Method in brief: as §1

[3] = test system: Streptococcus sp.; settings: broth dilution, 18 hours at 35° C.
Method in brief: as §1

[4] = test system: Staphylococcus sp.; settings: broth dilution, 18 hours at 35° C.
Method in brief: as §1

- MIC Enterococcus avium (GC 4558) ([1]; Enterococcus avium (GC 4558)): 64 µg/mL (≈ 45.7 µM)
- MIC Enterococcus faecalis (ATCC 29212) ([1]; Enterococcus faecalis (ATCC 29212)): >64 µg/mL
- MIC Enterococcus faecalis (GC 2242) ([1]; Enterococcus faecalis (GC 2242)): 64 µg/mL (≈ 45.7 µM)
- MIC Enterococcus faecalis (GC 2691) ([1]; Enterococcus faecalis (GC 2691)): >64 µg/mL
- MIC Enterococcus faecalis (GC 3059) ([1]; Enterococcus faecalis (GC 3059)): >64 µg/mL
- MIC Enterococcus faecalis (GC 4552) ([1]; Enterococcus faecalis (GC 4552)): >64 µg/mL
- MIC Enterococcus faecalis (GC 4553) ([1]; Enterococcus faecalis (GC 4553)): >64 µg/mL
- MIC Enterococcus faecalis (GC 4554) ([1]; Enterococcus faecalis (GC 4554)): >64 µg/mL
- MIC Enterococcus faecalis (GC 6189) ([1]; Enterococcus faecalis (GC 6189)): 64 µg/mL (≈ 45.7 µM)
- MIC Enterococcus faecium (GC 2243) ([1]; Enterococcus faecium (GC 2243)): >64 µg/mL
- MIC Enterococcus faecium (GC 4556) ([1]; Enterococcus faecium (GC 4556)): 64 µg/mL (≈ 45.7 µM)
- MIC Enterococcus faecium (GC 4557) ([1]; Enterococcus faecium (GC 4557)): 8 µg/mL (≈ 5.72 µM)
- MIC Enterococcus faecalis (ATCC 29212) ([1]; strain ATCC 29212): >64 µg/mL
- MIC Enterococcus faecalis (GC 2242) ([1]; strain GC 2242): 64 µg/mL (≈ 45.7 µM)
- MIC Enterococcus faecium (GC 2243) ([1]; strain GC 2243): >64 µg/mL
- MIC Enterococcus faecalis (GC 2691) ([1]; strain GC 2691): >64 µg/mL
- MIC Enterococcus faecalis (GC 3059) ([1]; strain GC 3059): >64 µg/mL
- MIC Enterococcus faecalis (GC 4552) ([1]; strain GC 4552): >64 µg/mL
- MIC Enterococcus faecalis (GC 4553) ([1]; strain GC 4553): >64 µg/mL
- MIC Enterococcus faecalis (GC 4554) ([1]; strain GC 4554): >64 µg/mL
- MIC Enterococcus faecium (GC 4556) ([1]; strain GC 4556): 64 µg/mL (≈ 45.7 µM)
- MIC Enterococcus faecium (GC 4557) ([1]; strain GC 4557): 8 µg/mL (≈ 5.72 µM)
- MIC Enterococcus avium (GC 4558) ([1]; strain GC 4558): 64 µg/mL (≈ 45.7 µM)
- MIC Enterococcus faecalis (GC 6189) ([1]; strain GC 6189): 64 µg/mL (≈ 45.7 µM)
- MIC Escherichia coli (ATCC 25922) ([2]; strain ATCC 25922): >64 µg/mL
- MIC Escherichia coli (GC 4559) ([2]; strain GC 4559): >64 µg/mL
- MIC Escherichia coli (GC 4560) ([2]; strain GC 4560): 4 µg/mL (≈ 2.86 µM)
- MIC Streptococcus agalactiae (GC 4564) ([3]; Streptococcus agalactiae (GC 4564)): 8 µg/mL (≈ 5.72 µM)
- MIC Streptococcus pneumoniae (ATCC 6301) ([3]; Streptococcus pneumoniae (ATCC 6301)): 2 µg/mL (≈ 1.43 µM)
- MIC Streptococcus pneumoniae (GC 1894) ([3]; Streptococcus pneumoniae (GC 1894)): 1 µg/mL (≈ 0.715 µM)
- MIC Streptococcus pneumoniae (GC 4565) ([3]; Streptococcus pneumoniae (GC 4565)): 4 µg/mL (≈ 2.86 µM)
- MIC Streptococcus pyogenes (GC 4563) ([3]; Streptococcus pyogenes (GC 4563)): 8 µg/mL (≈ 5.72 µM)
- MIC Streptococcus pneumoniae (ATCC 6301) ([3]; strain ATCC 6301): 2 µg/mL (≈ 1.43 µM)
- MIC Streptococcus pneumoniae (GC 1894) ([3]; strain GC 1894): 1 µg/mL (≈ 0.715 µM)
- MIC Streptococcus pyogenes (GC 4563) ([3]; strain GC 4563): 8 µg/mL (≈ 5.72 µM)
- MIC Streptococcus agalactiae (GC 4564) ([3]; strain GC 4564): 8 µg/mL (≈ 5.72 µM)
- MIC Streptococcus pneumoniae (GC 4565) ([3]; strain GC 4565): 4 µg/mL (≈ 2.86 µM)
- MIC Staphylococcus aureus (ATCC 29213) [4]: 16 µg/mL (≈ 11.4 µM)
- MIC Staphylococcus aureus (GC 1131) [4]: 16 µg/mL (≈ 11.4 µM)
- MIC Staphylococcus aureus (GC 3051) [4]: 16 µg/mL (≈ 11.4 µM)
- MIC Staphylococcus aureus (GC 3053) [4]: 32 µg/mL (≈ 22.9 µM)
- MIC Staphylococcus aureus (GC 4541) [4]: 8 µg/mL (≈ 5.72 µM)
- MIC Staphylococcus aureus (GC 4542) [4]: 16 µg/mL (≈ 11.4 µM)
- MIC Staphylococcus aureus (GC 4544) [4]: 16 µg/mL (≈ 11.4 µM)
- MIC Staphylococcus aureus (GC 4545) [4]: 16 µg/mL (≈ 11.4 µM)
- MIC Staphylococcus aureus (GC 1131) ([4]; inoculum 5×10^5 CFU/mL, strain GC 1131): 16 µg/mL (≈ 11.4 µM)
- MIC Staphylococcus aureus (ATCC 29213) ([4]; strain ATCC 29213): 16 µg/mL (≈ 11.4 µM)
- MIC Staphylococcus aureus (GC 3051) ([4]; strain GC 3051): 16 µg/mL (≈ 11.4 µM)
- MIC Staphylococcus aureus (GC 3053) ([4]; strain GC 3053): 32 µg/mL (≈ 22.9 µM)
- MIC Staphylococcus aureus (GC 4541) ([4]; strain GC 4541): 8 µg/mL (≈ 5.72 µM)
- MIC Staphylococcus aureus (GC 4542) ([4]; strain GC 4542): 16 µg/mL (≈ 11.4 µM)
- MIC Staphylococcus aureus-SMITH (GC 4543) ([4]; strain GC 4543): 16 µg/mL (≈ 11.4 µM)
- MIC Staphylococcus aureus (GC 4544) ([4]; strain GC 4544): 16 µg/mL (≈ 11.4 µM)
- MIC Staphylococcus aureus (GC 4545) ([4]; strain GC 4545): 16 µg/mL (≈ 11.4 µM)
- MIC Coagulase Negative Staphylococcus (GC 4547) ([4]; strain GC 4547): 8 µg/mL (≈ 5.72 µM)
- MIC Coagulase Negative Staphylococcus (GC 4548) ([4]; strain GC 4548): 8 µg/mL (≈ 5.72 µM)
- MIC Coagulase Negative Staphylococcus (GC 4549) ([4]; strain GC 4549): 4 µg/mL (≈ 2.86 µM)
- MIC Coagulase Negative Staphylococcus (GC 4551) ([4]; strain GC 4551): 32 µg/mL (≈ 22.9 µM)
- MIC Coagulase Negative Staphylococcus (GC 6257) ([4]; strain GC 6257): 4 µg/mL (≈ 2.86 µM)
- MIC Staphylococcus aureus-SMITH (GC 4543) ([4]; strain SMITH GC 4543): 16 µg/mL (≈ 11.4 µM)
SMILES: CC(c1ccccc1)C1NC(=O)CNC(=O)C(CO)NC(=O)C(C(O)C2CNC(=N)N2C2OC(CO)C(O)C(O)C2O)NC(=O)C(C(O)C2CNC(=N)N2)NC(=O)C(Cc2ccc(OC3OC(CO)C(OC4OC5COC(c6cccc(O)c6)OC5C(O)C4O)C(O)C3O)cc2)NC1=O (stereo not drawn) [Example 136, Cyclo[glycyl-β-methylphenylalanyl-O-[4-O-[4,6-O-(3-hydroxybenzylidene)hexopyranosyl]-hexopyranosyl]tyrosyl-3-(2-iminoimidazolidin-4-yl)seryl-3-(3-hexopyranosyl-2-iminoimidazolidin-4-yl)serylseryl]]
- MIC Staphylococcus haemolyticus (GC 4546) ([4]; strain GC 4546): 16 µg/mL (≈ 11.4 µM)
